Source: patent US5159085A, “2-anilino phenylacetic acid derivatives as inhibitors of PLA2 and lipoxygenase” (American Home Products Corporation, priority 1991, dated 1992)
Values belong to the compound of their own block, whether it stands above or below them.

How the values were obtained:
[1] = system: TxB2 synthesis (cyclooxygenase) by rat glycogen-elicited polymorphonuclear leukocytes; assay: Inhibition of TxB2 synthesis by rat glycogen-elicited PMN (cyclooxygenase); format: cell-based, rat (female Wistar); conditions: Rattus norvegicus, Leukocyte; for inhibition at 0.5 µM: negative values denote potentiation of cyclooxygenase
Method: (§1) Rat polymorphonuclear leukocytes (PMNs) are obtained from female Wistar rats (150-200 g) which receive an injection of 6% glycogen (10 ml i.p.). Rats are sacrificed 18-24 hours post injection by CO2 asphyxiation and the elicited cells are harvested by peritoneal lavage using physiological saline (0.9% NaCl). The exudate is centrifuged at 400×g for 10 minutes. The supernatant fluid is discarded and the cell pellet is resuspended to a concentration of 2.0×10^7 cells/ml in HBSS containing Ca^++ and Mg^++ and 10 μM L-cysteine.
(§2) To 1 ml aliquots of cell suspension, test drugs or vehicle are added, then preincubated at 37° C. for 10 minutes. A 23187 (1 μM), [^3 H]-AA (3.0 μCi/ml) and unlabeled AA (1 μM) are then added and the samples are further incubated for 10 minutes. The reaction is terminated by centrifugation and pelleting cells. Supernatants are then analyzed by HPLC analysis on a 15 cm×4.6 mm ID supelcosil LC-18 (Supelco)(3M) column, using a two solvent system at a flow rate of 1.4 ml total flow as follows:
(§3) Percent solvent changes are accomplished in a linear fashion.
(§4) Injections: 150 μl of each supernatant is injected directly onto column and ^3 H arachidonic acid metabolites are monitored using an on-line radioactivity detector (Ramona, IN/US, Fairfield, NJ).
(§5) Standards: 10^4 -2.0×10^4 dpm of eicosanoids of interest are injected in 90 μl EtOH cocktail.
(§6) Co-chromatography with standard [^3 H] leukotriene B4 (LTB4) in medium of stimulated PMN exposed to drug is compared to that found in medium of stimulated cells exposed to no drug, generating percent inhibition.
(§7) Results are expressed as percent inhibition at a given compound dose or as an IC50 value.
In this assay, the procedure of Example 19 is carried out as described. However, in order to determine cyclooxygenase activity, the samples are co-chromatographed with authentic reference [^3 H]-TxB2.
The results are calculated as in Example 19 and presented below: […]

[2] = target: T1, human synovial fluid PLA2 (Homo sapiens, UniProt P14555); assay: In vitro isolated phospholipase A2 assay, human synovial fluid PLA2; format: biochemical; conditions: 10 μM; human synovial fluid; negative values denote potentiation; read-out: % Inhibition at 10 μM HSF
T1 construct: Purified human synovial fluid; from tissue; host or cells: human synovial fluid
T1 sequence (P14555 21-144): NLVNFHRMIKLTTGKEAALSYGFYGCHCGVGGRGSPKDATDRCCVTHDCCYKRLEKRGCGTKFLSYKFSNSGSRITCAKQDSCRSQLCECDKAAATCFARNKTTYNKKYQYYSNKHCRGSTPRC
Method: The compounds of the invention are tested in an in vitro isolated phospholipase A2 assay to determine the ability of the test compounds to inhibit the release of arachidonic acid from an arachidonic acid-containing substrate by the action of phospholipase A2 enzyme from human and non-human sources.
(§8) This assay is carried out as follows:
Into a 15 mL polypropylene tube are added the following:
*pre-incubate at room temperature 30 min prior to substrate addition.
^5 Stock 10 mM prepared in dimethyl sulfoxide. Make 1:2 dilution with
dimethyl sulfoxide and add 1 μ L to 100 μL assay tube.
^6 Two human PLA2 enzymes are used:
b) Purified human synovial fluid.
Incubate the 100 μL reaction mixture for 10 minutes at 37° C. in a shaking water bath. The reaction is terminated by the addition of 2 mL tetrahydrofuran, followed by vortexing. NH2 columns (100 μg/mL--Analytichem International) are conditioned with 0.5 mL tetrahydrofuran followed by 0.5 mL tetrahydrofuran/water (2 mL:0.1 mL, v/v).
The sample is loaded onto the columns and slowly drawn through them. The hydrolyzed arachidonic acid retained in the columns is eluted therefrom with 1 mL tetrahydrofuran/glacial acetic acid (2%). The arachidonic acid is transferred to scintillation vials and quantitated by β-counting analysis. A "total counts" sample is prepared by pipetting 25 μL ^3 H-arachidonate E. coli directly into a scintillation vial to which is added 1 mL tetrahydrofuran. 10 mL aquasol (scintillation cocktail) is added to all samples. [formula]

[3] = system: paw edema induced by exogenous PLA2 (snake, A. piscivorus piscivorus); assay: In vivo PLA2 murine paw edema assay; parameters: species or system mouse (male CD-1); conditions: for change in vivo at 1 mg/kg: Mus musculus, ip, 0.5 h; for % Change in Edema 30 min / change in vivo at 1 mg/kg: 30 min
Method: The ability of the compounds of the invention to inhibit paw edema induced by the exogenous administration of PLA2 is measured in the in vivo PLA2 murine paw edema assay.
(§9) The assay is carried out as follows:
Non-fasted, male CD-1 mice (8 weeks old; 31-36 grams) are placed in plastic boxes in groups of six. The right hind paw volume is measured using mercury plethysmography (zero time). […] A solution of purified PLA2, from the diamond back cotton mouth snake (A. piscivorus piscivorus) is prepared in saline at a concentration of 6 μg/ml. Fifty (50) μl (0.3 μg) of this PLA2 solution is injected subcutaneously into the right hind paw with a plastic 1 ml plastic syringe (27 gauge, 1" needle). Paw volume of the injected paw is measured again at 10 minutes, 30 minutes and 60 minutes after PLA2 injection. Animals are euthanized with CO2 at the completion of the study.
The paw edema is calculated by subtracting the zero time volume from the volume recorded at each time period. Mean paw edema for each treatment group is then calculated and expressed as (μl±S.E.). Drug effects are expressed as a percent change from control (vehicle) values. Statistical significance is determined by a one-way analysis of variance with LSD comparison to control (p<0.05). ED50 's are determined using repression analysis.

[4] = system: LTB4 synthesis by rat glycogen-elicited polymorphonuclear leukocytes (lipoxygenase); assay: Inhibition of LTB4 synthesis by rat glycogen-elicited polymorphonuclear leukocytes (PMN); format: cell-based, rat (female Wistar); conditions: Leukocyte, A 23187 and exogenous AA; for inhibition at 0.5 µM: negative value denotes potentiation
Source text: This is especially true with respect to 5,12-diHETE, which is also denoted as LTB4 [see Ford-Hitchinson, J. Roy. Soc. Med., 74, 831 (1981)]. Compounds which inhibit the PLA2 -mediated release of arachidonic acid thereby effectively prevent the oxidation of arachidonic acid to the various leukotriene products via the lipoxygenase cascade. Accordingly, the specificity of action of PLA2 inhibitors can be determined by the activity of test compounds in this assay, which measures the ability of compounds to inhibit the synthesis of LTB4 by rat glycogen-elicited polymorphonuclear leukocytes (PMN) in the presence of exogenous substrate.
as §9, §1, §2
Gradient: (system is equillibrated with Solvent A)
as §3, §4, §5, §6, §7

human platelet PLA2 = target: T2, human platelet PLA2 (Homo sapiens, UniProt P14555); assay: In vitro isolated phospholipase A2 assay, human platelet PLA2 (arachidonic acid release from 3H-AA E. coli substrate); format: biochemical; conditions: human platelet; for inhibition at 10 µM: negative values denote potentiation, read-out: % Inhibition at 10 μM HP
T2 construct: Semipurified human platelet acid extract PLA2; from tissue; host or cells: human platelets (semipurified acid extract)
T2 sequence (P14555 21-144): T1 sequence (P14555 21-144)

LTC4 = assay: In vivo murine zymosan peritonitis assay, LTC4 (lipoxygenase pathway); parameters: species or system mouse (male CD-1); conditions: p.o., mouse, standard drugs
Method: The compounds of the invention are evaluated for their ability to inhibit the lipoxygenase and/or cyclooxygenase pathways of arachidonic acid metabolism in the in vivo murine zymosan peritonitis assay.
as §8
Male CD-1 mice (8 weeks old) are placed in plastic boxes in groups of six. Animals are injected with 1 ml i.p. of either 1% zymosan in pyrogen free 0.9% saline or saline (unstimulated control). Compounds are dosed orally 1 hour prior to zymosan injection. Twenty minutes after zymosan injection, the mice are asphyxiated by CO2 inhalation and the peritoneal cavity is lavaged with 2 ml ice cold Hanks Balanced Salt Solution (HBSS) without CaCl2, MgSO4 ·7H2 O and MgCL2 ·6H2 O. Peritoneal lavage fluid from each mouse is removed by syringe and placed in 5 ml plastic test tubes put on ice and volume is noted. Preparation of samples for evaluation by ELISA is as follows: Samples are centrifuged at 800×g for 15 minutes; 1 ml of the supernatant is added to 8 ml ice cold methanol and kept at -70° C. overnight to precipitate protein; and samples are then centrifuged at 800×g for 15 minutes, followed by a drying procedure in a Savant speed vac concentrator. The samples are reconstituted with 1 ml ice cold ELISA buffer and stored at -70° C. until assayed. The assay for eicosanoids (LTC4 and 6-keto-PGF1α) is performed according to conventional ELISA procedures.
Compounds to be tested orally are suspended in 0.5% Tween 80. Compounds to be tested intraperitoneally are suspended in 0.5% methylcellulose in 0.9% saline.
The total metabolite level in lavage fluid/mouse is calculated and the significance is determined by a one-way analysis of variance with LSD comparisons to control (p≤0.05). Drug effects are expressed as a percent change from control values.

Structure (SMILES): O=C(O)Cc1cc(OCc2ccc3ccc(Cl)cc3n2)ccc1Nc1c(Cl)cccc1Cl [Example 6, 5[(7-Chloro-2-quinolinyl)methoxy]-2-[(2,6-dichlorophenyl)amino]benzene acetic acid]
inhibition at 0.5 µM [1]: 26%
inhibition at 10 µM [2]: 38.8%
% Change in Edema 3 min ([3]; 1 mg/kg i.p.): -4%
% Change in Edema 10 min ([3]; 1 mg/kg i.p.): -18%
% Change in Edema 10 min ([3]; 10 mg/kg i.p.): -24%
% Change in Edema 30 min ([3]; 10 mg/kg i.p.): -24%
% Change in Edema 60 min ([3]; 10 mg/kg i.p.): -32%
% Change in Edema 10 min ([3]; 50 mg/kg p.o.): -18%
% Change in Edema 30 min ([3]; 50 mg/kg p.o.): -39%
% Change in Edema 60 min ([3]; 50 mg/kg p.o.): -10%
change in vivo at 1 mg/kg ([3]; 1 mg/kg i.p.): -12%
inhibition at 0.5 µM [4]: 80%
inhibition at 10 µM (human platelet PLA2): -8.6%

Structure (SMILES): COC(=O)Cc1cc(OCc2ccc3ccccc3c2)ccc1Nc1c(Cl)cccc1Cl [Example 7, 2-[(2,6-Dichlorophenyl)amino]-5-[(2-naphthalenyl)-methoxy]benzene acetic acid methyl ester]
inhibition at 0.5 µM [1]: -26%
inhibition at 10 µM [2]: -65.4%
% Change in Edema 10 min ([3]; 1 mg/kg i.p.): -54%
% Change in Edema 10 min ([3]; 10 mg/kg i.p.): -32%
% Change in Edema 30 min ([3]; 10 mg/kg i.p.): -39%
change in vivo at 1 mg/kg ([3]; 1 mg/kg i.p.): -44%
inhibition at 10 µM [4]: 34%
inhibition at 10 µM (human platelet PLA2): 3.6%

Structure (SMILES): O=C(O)Cc1cc(OCc2ccc3ccccc3c2)ccc1Nc1c(Cl)cccc1Cl [Example 8, acetic acid]
inhibition at 0.5 µM [1]: 30%
inhibition at 10 µM [2]: 42.5%
% Change in Edema 10 min ([3]; 10 mg/kg i.p.): -28%
% Change in Edema 30 min ([3]; 10 mg/kg i.p.): -43%
% Change in Edema 60 min ([3]; 10 mg/kg i.p.): -47%
% Change in Edema 10 min ([3]; 50 mg/kg p.o.): +35%
% Change in Edema 30 min ([3]; 50 mg/kg p.o.): -37%
% Change in Edema 60 min ([3]; 50 mg/kg p.o.): -24%
inhibition at 0.5 µM [4]: 67%
inhibition at 10 µM (human platelet PLA2): -3.9%

Structure (SMILES): O=C(O)Cc1cc(OCCCCOc2ccccc2)ccc1Nc1c(Cl)cccc1Cl [Example 9, 2-[(2,6-Dichlorophenyl)amino]-5-[(4-phenoxy)butoxy]benzene acetic acid]
inhibition at 0.5 µM [1]: 38%
inhibition at 10 µM ([1]; at 10 μM): 100%
inhibition at 10 µM [2]: 15.7%
% Change in Edema 3 min ([3]; 10 mg/kg i.p.): -41%
% Change in Edema 10 min ([3]; 10 mg/kg i.p.): -54%
% Change in Edema 30 min ([3]; 10 mg/kg i.p.): -32%
% Change in Edema 3 min ([3]; 50 mg/kg p.o.): +37%
% Change in Edema 10 min ([3]; 50 mg/kg p.o.): -12%
% Change in Edema 30 min ([3]; 50 mg/kg p.o.): -4%
inhibition at 0.5 µM [4]: 16%
inhibition at 10 µM [4]: 100%
inhibition at 10 µM (human platelet PLA2): 2.2%

inhibition at 10 µM [2]: -11%
% Inhibition HP (human platelet PLA2; "at 50 SM"): 12.5%
Structure (SMILES): O=C1Cc2cc(OCc3ccc4ccccc4n3)ccc2N1c1c(Cl)cccc1Cl [Example 13]
inhibition at 0.5 µM [1]: 10%
inhibition at 0.5 µM [4]: 89%

inhibition at 10 µM [2]: -4.3%
inhibition at 10 µM (human platelet PLA2): 14.2%
Structure (SMILES): O=C(O)Cc1cc(OCc2ccc3ccccc3n2)ccc1Nc1ccccc1 [Example 16, 2-(Phenylamino)-5-(2-quinolinylmethoxy)benzene acetic acid]
inhibition at 0.5 µM [1]: 10%
inhibition at 0.5 µM [4]: 90%

Structure (SMILES): CC(C)Cc1ccc(C(C)C(=O)O)cc1 (centres unmarked) [Ibuprofen, reference compound]
ED50 LTC4 (LTC4): Not Active

Structure (SMILES): COc1ccc2c(c1)c(CC(=O)O)c(C)n2C(=O)c1ccc(Cl)cc1 [Indomethacin, reference compound]
ED50 LTC4 (LTC4): Not Active
